Measured values from ChEMBL document CHEMBL3739326, “ent-Kaurene Glycosides from Ageratina cylindrica” (J Nat Prod, 2015).

Columns and labels:
[1] = test system: Giardia intestinalis; assay: Antiprotozoal activity against Giardia lamblia IMSS:1090:1; type: functional, organism-based; settings: Giardia duodenalis
[2] = test system: Entamoeba histolytica; assay: Antiprotozoal activity against Entamoeba histolytica HM-1:IMSS; type: functional, organism-based

IC50 [1] [µM]	IC50 [2] [µM]	Structure (SMILES)
48.9	52.7	C=C1[C@@H]2CC[C@H]3[C@]4(C)CCC[C@@](C)(C(=O)O[C@@H]5O[C@H](CO)[C@@H](O)[C@H](O)[C@H]5O)[C@H]4CC[C@]3(C2)[C@@H]1O[C@H]1O[C@@H](C)[C@@H](O)[C@@H](OC(C)=O)[C@@H]1O
98.5	73.5	C=C1[C@@H]2CC[C@H]3[C@]4(C)CCC[C@@](C)(C(=O)O)[C@H]4CC[C@]3(C2)[C@@H]1O[C@H]1O[C@@H](C)[C@@H](O)[C@@H](O)[C@@H]1O
69.5	49.5	C=C1[C@@H]2CC[C@H]3[C@]4(C)CCC[C@@](C)(C(=O)O[C@@H]5O[C@H](CO)[C@@H](O)[C@H](O)[C@H]5O)[C@H]4CC[C@]3(C2)[C@@H]1O[C@H]1O[C@@H](C)[C@@H](OC(C)=O)[C@@H](O)[C@@H]1O
41.9	43.3	C=C1[C@@H]2CC[C@H]3[C@]4(C)CCC[C@@](C)(C(=O)O[C@@H]5O[C@H](CO)[C@@H](O)[C@H](O)[C@H]5O)[C@H]4CC[C@]3(C2)[C@@H]1O[C@H]1O[C@@H](C)[C@@H](O)[C@@H](O)[C@@H]1O
